Experimental data as given in patent US20060029548A1, “Methods of diagnosing, monitoring and treating pulmonary diseases” (priority 2004, published 2006).
Values joined by “and” are separate entries in the source; they are usually repeats but may differ in a detail not shown here. Equal values may be shown once. “Also recorded” adds a separate entry of the source.

Legend:
Type in all cases: in vivo
[1] = tested on: human subjects (cough, throat irritation, sputum); assay: Symptoms other than dyspnoea recorded after inhalation challenge; details: all subjects
Description: (§1) The clinical study described in Examples 2-4 was randomized, double blind, crossover, and controlled. Each subject attended the laboratory on three occasions. Procedures on the initial screening visit included obtaining information about the study and a number of investigations in the following order: medical history, lung function, reversibility and skin prick testing. At visit 2 and 3, separated by 2-7 days, the subjects were subjected to either an ATP or AMP challenge in a randomized fashion such that, by the end of the study, each patient had been tested with both compounds. Before, immediately after, and 30 minutes after the challenge, lung function and Borg score for dyspnoea were determined, and symptoms other than dyspnoea were recorded.
(§2) For the tests described in Examples 2-4, ATP and AMP (Sigma, Gillingham, Dorset, England) were dissolved freshly in normal saline solution to produce a range of doubling concentrations from 0.227-929 umol/ml for ATP and from 0.138-1152 umol/ml for AMP and immediately used for bronchial challenge. The solutions were administered using a breath-activated dosimeter (Mefar, Bovezzo, Italy) with an output of 10 ul per inhalation [Prieto et al. (2003) Chest 123:993-997]. The subjects, while wearing a nose clip, inhaled (via a mouthpiece) five breaths of normal saline, followed by sequential doubling concentrations of either ATP or AMP from functional residual capacity to total lung capacity. FEV1 was measured from two minutes after the fifth inhalation of normal saline until there was a fall in FEV1 of ≧20% of its value recorded after saline inhalation or until maximal concentration of either ATP or AMP was inhaled. The provocative dose causing a 20% decrease in FEV1 (PD20) was calculated by interpolation of the logarithmic dose response curve.

[2] = tested on: human subjects (airway responsiveness, FEV1); assay: Inhalation challenge test: airway responsiveness measured as change in FEV1 (PD20); details: for PD20 geometric mean: non-responders excluded; for PD20: individual subjects
Description: as §1
In the clinical study described in Examples 2-4, spirometric tests were performed using a dry spirometer (Vitalograph Ltd., Buckingham, England) and the best value of the three expiratory manoeuvers was expressed as liters and percentage of the predicted.
as §2
All data from the analyses described in Examples 2-4 were performed with a software package (GraphPad Prism Software, Inc., USA). The significance of differences among groups was assessed by Student's t-test, and analysis of categorical variables was examined by Chi-square test. Pearson's correlation coefficient and linear regression analysis were used to analyze the relationship between the percentage decreases in FEV1 and Borg score. The PD20 values for ATP and AMP were logarithmically transformed to normalize their distribution and presented as geometric means. All other numerical variables were expressed as the mean±SEM and significance was defined as p<0.05.

[3] = tested on: pulmonary RAR-containing afferent nerve fiber; assay: Vagal activation experiments in dogs: action potentials in RAR-containing fibers; details: anesthetized dog
Method: The experiments described in Example 5 were performed essentially as described in Pelleg et al. [(1996) J. Physiol. 490(1):265-275] and U.S. Pat. No. 5,874,420, both of which are incorporated herein by reference in their entirety. In brief, they were performed on anesthetized (sodium pentobarbitone, 30 mg kg^−1 plus 3 mg kg^−1 h^−1, intravenous) dogs artificially ventilated with room air using a respirator. Arterial blood pH, PO2, PCO2, body temperature were maintained as described in U.S. Pat. No. 5,874,420. A peripheral vein was cannulated for the administration of physiological saline solution and maintenance doses of anesthetic. Catheters were introduced via the femoral vein and left atrial appendage and positioned in the right atrium and left atrium for the administration of test solutions. The chest was opened by a longitudinal sternotomy. The right cervical vagosympathetic trunk was exposed by a midcervical longitudinal section of the skin and careful dissection of neck muscles and connective tissues. The edges of the cut skin were elevated and secured to create a trough which was filled with warm (about 37° C.) mineral oil. A section of the vagosympathetic trunk was placed on a small plate of black Perspex™ and fine branches were separated from the main bundle by careful dissection using microsurgical tools and a dissecting microscope (Model F212, Jenopik Jena, GmbH, Germany).
Extracellular neural action potentials were recorded using a custom-made bipolar electrode that contained two platinum-iridium wires (1.25 cm×0.0125 cm) connected to a high-impedence first-stage differential amplifier (model AC8331, CW, Inc., Ardmore, Pa.) via a shielded cable. The output of the first-stage amplifier was fed into a second-stage differential amplifier (model BMA-831/C, CWE, Inc.). Isolated fibers were laid on the pair of platinum-iridium wires. Vagal C fibers with chemosensitive endings have a sparse irregular discharge which is not associated with cardiac or respiratory cycles. Confirmation of fiber type was obtained by: first monitoring the response to capsaicin (10 microg kg^−1, intra-right atrial bolus); second, monitoring the response to mechanical stimulation of the lungs using gentle probing with forceps as well as inflation of the lungs to 2-3 times the tidal volume; and third, determining the speed of conduction using a stimulating electrode positioned distal to the initial recording site. Nerve fibers with RAR on their pulmonary endings, spontaneously fire a brief (i.e., short lasting) volley of action potentials associated with peak tracheal pressure during each respiratory cycle.
[…] Volume controls consisted of either 5 ml+5 ml or 1 ml+3 ml physiological saline. All injections were performed in the same mode by the same person. To exclude involvement of baroreceptors in the recorded neural activity, the latter was monitored before and after a bolus of nitroglycerine (1 mg; intravenous).
The procedure described in Example 1 was used to measure action potentials in dog pulmonary fibers with RAR on their terminals following administration of various agents. RAR activation generated a brief volley of action potentials associated with each respiratory cycle that was seen before as well as after administration of ATP (FIG. 7). […] Thus ATP modified the activity of the RAR-containing fiber manifested in their transient loss of the rapid adaptability characteristic.

Nc1ncnc2c1ncn2[C@@H]1O[C@H](COP(=O)(O)OP(=O)(O)OP(=O)(O)O)[C@@H](O)[C@H]1O [ATP, adenosine 5′-triphosphate]
subjects who coughed after challenge [1]: 90%
subjects who had sputum after challenge [1]: 28%
subjects who had throat irritation after challenge [1]: 75%
patients with bronchoconstriction ([2]; 19 smoking subjects (seven healthy smokers, seven smokers at risk, five COPD)): 42%
mean PD20 ([2]; ATP-responsive COPD patients): 178.5 µmol/mL
PD20 geometric mean ([2]; COPD (n = 7)): 178.5 µmol/mL
patients who responded to challenge ([2]; COPD patients): 67%
PD20 geometric mean (range) ([2]; all subjects who had airway responsiveness): 72.9 (2.9-808.7) umol/ml
PD20 geometric mean ([2]; asthma (n = 10)): 48.7 µmol/mL
mean PD20 ([2]; asthma patients): 48.7 µmol/mL
response to challenge ([2]; healthy non-smokers, no change in FEV1 or reduction of less than 20%): negative
control subjects who responded ([2]; healthy smoker control subjects): three of seven
subjects who responded to challenge ([2]; healthy smokers): 57%
PD20 geometric mean ([2]; healthy smokers (n = 7)): 197.0 µmol/mL
PD20 ([2]; COPD (n = 7)): 2.9 μmol/ml and >929 μmol/ml (2×) and 242.8 μmol/ml and 72.0 μmol/ml and 163.1 μmol/ml and 808.7 μmol/ml
PD20 ([2]; asthma (n = 10)): 44.8 µmol/mL and 23.6 µmol/mL and 20.9 µmol/mL and 67.9 µmol/mL and 92.2 µmol/mL and 160.6 µmol/mL and 18.1 µmol/mL and 28.1 µmol/mL and 137.0 µmol/mL and 49.0 µmol/mL
PD20 ([2]; healthy smokers (n = 7)): 303.4 μmol/ml and >929 μmol/ml (3×) and 70.2 μmol/ml and 442.4 μmol/ml and 159.9 μmol/ml
PD20 ([2]; non-smokers (n = 10), provocative dose causing 20% decrease in FEV1): >929 µmol/mL
PD20 ([2]; smokers at risk (n = 7)): >929 μmol/ml (6×) and 52.8 μmol/ml
PD20 geometric mean ([2]; non-smokers (n = 10)): >929 µmol/mL
subjects responsive to challenge ([2]; of the 40 subjects in the study): 47.5%
patients who responded to challenge ([2]; patients with asthma): 100%
ΔFEV1 (decrease in FEV1 as percentage of baseline FEV1) ([2]; patients with asthma): 29%
subjects who responded to challenge ([2]; smokers at risk): 14%
PD20 geometric mean ([2]; smokers at risk (n = 7)): 52.8 µmol/mL
desensitization on repeated administrations ([3]; RAR-containing fibers): not associated with desensitization
effect on action potentials of RAR-containing fibers ([3]; rapid bolus, ATP 6 μmol/kg, capsaicin 10 ug kg−1, analogs 0.75 umol kg−1): activity of RAR-containing fibers was prolonged; also recorded: stimulated both the C fibers and RAR-containing fibers
